Earlier results in patent US11925657B2, “Formulations and methods for treating conditions of the eye” (Sight Sciences, Inc., priority 2020, dated 2024).

Assays:
[1] = antibiotic levels of azithromycin (1%)
[2] = lower concentrations, e.g. 0.1% and 0.35%

Compound | phase transition temperature of meibum lipids and lipid ordering [1] | efficacy toward intended rosacea treatment [2]
CC[C@H]1OC(=O)[C@H](C)[C@@H](O[C@H]2C[C@@](C)(OC)[C@@H](O)[C@H](C)O2)[C@H](C)[C@@H](O[C@@H]2O[C@H](C)C[C@H](N(C)C)[C@H]2O)[C@](C)(O)C[C@@H](C)CN(C)[C@H](C)[C@@H](O)[C@]1(C)O [azithromycin] | can improve | 
ivermectin |  | lose efficacy
